The text below walks through data of patent US20210393633A1, “INHIBITORS OF HUMAN IMMUNODEFICIENCY VIRUS REPLICATION” (ViiV HEALTHCARE UK (NO.5) LIMITED, priority 2018, published 2021).

Series [1] concerns recombinant NL4-3 virus (nef section replaced with Renilla luciferase gene) in MT-2 cells. The series can be described thus: HIV cell culture assay (antiviral activity, luciferase readout in infected MT-2 cells). Particulars: NL43. In kind it is cell-based. As to the method:
HIV cell culture assay—MT-2 cells, 293T cells and the proviral DNA clone of NL4-3 virus were obtained from the NIH AIDS Research and Reference Reagent Program. MT-2 cells were propagated in RPMI 1640 media supplemented with 10% heat inactivated fetal bovine serum (FBS), […]. The 293T cells were propagated in DMEM media supplemented with 10% heat inactivated FBS, […]. A recombinant NL4-3 proviral clone, in which a section of the nef gene was replaced with the Renilla luciferase gene, was used to make the reference virus used in these studies. The recombinant virus was prepared through transfection of the recombinant NL4-3 proviral clone into 293T cells using Transit-293 Transfection Reagent from Minis Bio LLC (Madison, Wis.). Supernatent was harvested after 2-3 days and the amount of virus present was titered in MT-2 cells using luciferase enzyme activity as a marker by measuring luciferase enzyme activity. Luciferase was quantitated using the EnduRen Live Cell Substrate from Promega (Madison, Wis.). Antiviral activities of compounds toward the recombinant virus were quantified by measuring luciferase activity in MT-2 cells infected for 4-5 days with the recombinant virus in the presence of serial dilutions of the compound.
The 50% effective concentration (EC5o) was calculated by using the exponential form of the median effect equation where (Fa)=1/[1+(ED50/drug conc.)m] (Johnson Va., Byington R T. Infectivity Assay. In Techniques in HIV Research. ed. Aldovini A, Walker B D. 71-76. New York: Stockton Press.1990). The 50% inhibitory concentration (EC50) was calculated by using the exponential form of the median effect equation where percent inhibition=1/[1 +(EC50/drug concentration)m], where m is a parameter that reflects the slope of the concentration-response curve.

A short description of series [2]: Compound cytotoxicity, XTT-based colorimetric assay. Format: cell-based. As to conditions: human; uninfected MT2 cells, day 4, XTT. The method, then:
Compound cytotoxicity and the corresponding CC50 values were determined using the same protocol as described in the antiviral assay except that uninfected cells were used. Cytotoxicity was assessed on day 4 in uninfected MT2 cells by using a XTT (2,3-bis[2-Methoxy-4-nitro-5-sulfophenyl]-2H-tetrazolium-5-carboxyanilide inner salt)-based colorimetric assay (Sigma-Aldrich, St Louis, Mo).

Broadly, the EC50 is the concentration that produces a half-maximal response. By CC50 is commonly meant the concentration at which the toxic effect on the cells reaches its halfway point. The low end stands for greater toxicity to the cells, the high end for lower toxicity to the cells. Consider `CN1CCC(c2ccc3c(=O)n(-c4ccc(Cl)c5c(NS(C)(=O)=O)nn(C)c45)c([C@H](Cc4cc(F)cc(F)c4)NC(=O)Cn4nc(C(F)F)c5c4C(F)(F)[C@@H]4C[C@H]54)nc3c2)CC1` (atropisomer, axis not shown; (P)) [Example 14, N—((S)-1-((3P)-3-(4-chloro-1-methyl-3-(methylsulfonamido)-1H-indazol-7-yl)-7-(1-methylpiperidin-4-yl)-4-oxo-3,4-dihydroquinazolin-2-yl)-2-(3,5-difluorophenyl)ethyl)-2-((3bS,4aR)-3-(difluoromethyl)-5,5-difluoro-3b,4,4a,5-tetrahydro-1H-cyclopropa[3,4]cyclopenta[1,2-c]pyrazol-1-yl)acetamide], for which the EC50 in series [1] turned out to be 0.23 nM. Also, the cytotoxic concentration (CC50) at 4 day in series [2] was over 500 nM.
As to `CS(=O)(=O)Nc1nn(CC(F)F)c2c(-n3c([C@H](Cc4cc(F)cc(F)c4)NC(=O)Cn4nc(C(F)F)c5c4C(F)(F)[C@@H]4C[C@H]54)nc4cc(C5=CCOCC5)ccc4c3=O)ccc(Cl)c12` (atropisomer, axis not shown; (P)) [Example 15, N—((S)-1-((3P)-3-(4-chloro-1-(2,2-difluoroethyl)-3-(methylsulfonamido)-1H-indazol-7-yl)-7-(3,6-dihydro-2H-pyran-4-yl)-4-oxo-3,4-dihydroquinazolin-2-yl)-2-(3,5-difluorophenyl)ethyl)-2-((3bS,4aR)-3-(difluoromethyl)-5,5-difluoro-3b,4,4a,5-tetrahydro-1H-cyclopropal3,41cyclopenta[1,2-c]pyrazol-1-yl)acetamide], the EC50 in series [1] stood at 0.094 nM. In series [2], this molecule showed a CC50 at 4 day of over 500 nM.
Regarding `CS(=O)(=O)Nc1nn(CC(F)F)c2c(-n3c([C@H](Cc4cc(F)cc(F)c4)NC(=O)Cn4nc(C(F)F)c5c4C(F)(F)[C@@H]4C[C@H]54)nc4cc(C5CCOCC5)ccc4c3=O)ccc(Cl)c12` (atropisomer, axis not shown; (P)) [Example 17, N—((S)-1-((3P)-3-(4-chloro-1-(2,2-difluoroethyl)-3-(methylsulfonamido)-1H-indazol-7-yl)-4-oxo-7-(tetrahydro-2H-pyran-4-yl)-3,4-dihydroquinazolin-2-yl)-2-(3,5-difluorophenyl)ethyl)-2-((3bS,4aR)-3-(difluoromethyl)-5,5-difluoro-3b,4,4a,5-tetrahydro-1H-cyclopropal3,41cyclopenta[1,2-c]pyrazol-1-yl)acetamide], the concentration for a half-maximal effect (EC50) in series [1] was 0.06 nM. In series [2], this molecule showed a CC50 at 4 day of over 500 nM.
Take `O=C(Cn1nc(C(F)F)c2c1C(F)(F)[C@@H]1C[C@H]21)N[C@@H](Cc1cc(F)cc(F)c1)c1nc2cc(C3CCOCC3)ccc2c(=O)n1-c1ccc(Cl)c2c(NS(=O)(=O)C3CC3)nn(CC(F)F)c12` (atropisomer, axis not shown; (P)) [Example 18]: in series [1], the EC50 came to 0.084 nM. In series [2], this molecule returned a CC50 at 4 day of over 500 nM.
Take `C[C@@H]1CC(c2ccc3c(=O)n(-c4ccc(Cl)c5c(NS(C)(=O)=O)nn(C)c45)c([C@H](Cc4cc(F)cc(F)c4)NC(=O)Cn4nc(C(F)F)c5c4C(F)(F)[C@@H]4C[C@H]54)nc3c2)=C[C@H](C)O1` (atropisomer, axis not shown; (P)) [Example 19, N—((S)-1-((3P)-3-(4-chloro-1-methyl-3-(methylsulfonamido)-1H-indazol-7-yl)-7-((2R,6S)-2,6-dimethyl-3,6-dihydro-2H-pyran-4-yl)-4-oxo-3,4-dihydroquinazolin-2-yl)-2-(3,5-difluorophenyl)ethyl)-2-((3bS,4aR)-3-(difluoromethyl)-5,5-difluoro-3b,4,4a,5-tetrahydro-1H-cyclopropa[3,4]cyclopenta[1,2-c]pyrazol-1-yl)acetamide]: the half-maximal effective concentration (EC50) in series [1] was 0.08 nM. This molecule also yielded a CC50 at 4 day in series [2] of over 500 nM.
In the case of `C[C@@H]1CC(c2ccc3c(=O)n(-c4ccc(Cl)c5c(NS(C)(=O)=O)nn(CC(F)F)c45)c([C@H](Cc4cc(F)cc(F)c4)NC(=O)Cn4nc(C(F)F)c5c4C(F)(F)[C@@H]4C[C@H]54)nc3c2)=C[C@H](C)O1` (atropisomer, axis not shown; (P)) [Example 20, N—((S)-1-((3P)-3-(4-chloro-1-(2,2-difluoroethyl)-3-(methylsulfonamido)-1H-indazol-7-yl)-7-((2R,6S)-2,6-dimethyl-3,6-dihydro-2H-pyran-4-yl)-4-oxo-3,4-dihydroquinazolin-2-yl)-2-(3,5-difluorophenyl)ethyl)-2-((3bS,4aR)-3-(difluoromethyl)-5,5-difluoro-3b,4,4a,5-tetrahydro-1H-cyclopropa[3,4]cyclopenta[1,2-c]pyrazol-1-yl)acetamide], the concentration for a half-maximal effect (EC50) in series [1] worked out at 0.13 nM. In addition, the cytotoxic concentration (CC50) at 4 day in series [2] is over 500 nM.
Regarding `C[C@@H]1CC(c2ccc3c(=O)n(-c4ccc(Cl)c5c(NS(=O)(=O)C6CC6)nn(CC(F)F)c45)c([C@H](Cc4cc(F)cc(F)c4)NC(=O)Cn4nc(C(F)F)c5c4C(F)(F)[C@@H]4C[C@H]54)nc3c2)=C[C@H](C)O1` (atropisomer, axis not shown; (P)) [Example 21, N—((S)-1-((3P)-3-(4-chloro-3-(cyclopropanesulfonamido)-1-(2,2-difluoroethyl)-1H-indazol-7-yl)-7-((2R,6S)-2,6-dimethyl-3,6-dihydro-2H-pyran-4-yl)-4-oxo-3,4-dihydroquinazolin-2-yl)-2-(3,5-difluorophenyl)ethyl)-2-((3bS,4aR)-3-(difluoromethyl)-5,5-difluoro-3b,4,4a,5-tetrahydro-1H-cyclopropa[3,4]cyclopenta[1,2-c]pyrazol-1-yl)acetamide], the half-maximal effective concentration (EC50) in series [1] is 0.14 nM. For the same molecule, in series [2], the cytotoxic concentration (CC50) at 4 day was over 500 nM.
The corresponding values for `COC(C)(C)CCc1ccc2c(=O)n(-c3ccc(Cl)c4c(NS(C)(=O)=O)nn(C)c34)c([C@H](Cc3cc(F)cc(F)c3)NC(=O)Cn3nc(C(F)F)c4c3C(F)(F)[C@@H]3C[C@H]43)nc2c1` (atropisomer, axis not shown; (P)) [Example 24, N—((S)-1-((3P)-3-(4-chloro-1-methyl-3-(methylsulfonamido)-1H-indazol-7-yl)-7-(3-methoxy-3-methylbutyl)-4-oxo-3,4-dihydroquinazolin-2-yl)-2-(3,5-difluorophenyl)ethyl)-2-((3bS,4aR)-3-(difluoromethyl)-5,5-difluoro-3b,4,4a,5-tetrahydro-1H-cyclopropa[3,4]cyclopenta[1,2-c]pyrazol-1-yl)acetamide] are 0.039 nM and over 500 nM.
For the molecule `Cn1nc(NS(C)(=O)=O)c2c(Cl)ccc(-n3c([C@H](Cc4cc(F)cc(F)c4)NC(=O)Cn4nc(C(F)F)c5c4C(F)(F)[C@@H]4C[C@H]54)nc4cc(C(F)(F)C5CCC5)ccc4c3=O)c21` (atropisomer, axis not shown; (P)) [Example 25, N—((S)-1-((3P)-3-(4-chloro-1-methyl-3-(methylsulfonamido)-1H-indazol-7-yl)-7-(cyclobutyldifluoromethyl)-4-oxo-3,4-dihydroquinazolin-2-yl)-2-(3,5-difluorophenyl)ethyl)-2-((3bS,4aR)-3-(difluoromethyl)-5,5-difluoro-3b,4,4a,5-tetrahydro-1H-cyclopropa[3,4]cyclopenta[1,2-c]pyrazol-1-yl)acetamide], the EC50 in series [1] worked out at 0.75 nM. In series [2], this molecule showed a 50% cytotoxic concentration (CC50) at 4 day of over 500 nM.
For the molecule `Cn1nc(NS(C)(=O)=O)c2c(Cl)ccc(-n3c([C@H](Cc4cc(F)cc(F)c4)NC(=O)Cn4nc(C(F)F)c5c4C(F)(F)[C@@H]4C[C@H]54)nc4cc(C5(C(F)(F)F)CC5)ccc4c3=O)c21` (atropisomer, axis not shown; (P)) [Example 27], in series [1], the EC50 was found to be 0.13 nM. For the same molecule, the half-maximal cytotoxic concentration (CC50) at 4 day in series [2] is over 500 nM.
With `Cn1nc(NS(C)(=O)=O)c2c(Cl)ccc(-n3c([C@H](Cc4cc(F)cc(F)c4)NC(=O)Cn4nc(C(F)F)c5c4C(F)(F)[C@@H]4C[C@H]54)nc4cc(CCC(=O)N5CCOCC5)ccc4c3=O)c21` [Example 1, N—((S)-1-((3P)-3-(4-chloro-1-methyl-3-(methylsulfonamido)-1H-indazol-7-yl)-7-(3-morpholino-3-oxopropyl)-4-oxo-3,4-dihydroquinazolin-2-yl)-2-(3,5-difluorophenyl)ethyl)-2-((3bS,4aR)-3-(difluoromethyl)-5,5-difluoro-3b,4,4a,5-tetrahydro-1H-cyclopropa[3,4]cyclopenta[1,2-c]pyrazol-1-yl)acetamide], in series [1], the EC50 stood at 0.096 nM. For the same molecule, the cytotoxic concentration (CC50) at 4 day in series [2] is over 1000 nM.
